From patent publication US9353094B2, “Substituted quinoxalines as kinase inhibitors” (BOARD OF REGENTS OF THE UNIVERSITY OF NEBRASKA, priority 2010, dated 2016)

Key:
[1] = test system: human breast MDA-MB-231 tumor cell line; assay: Cell growth inhibition assay (alamar blue); assay type: cell-based; conditions: MDA-MB-231, 20 μM, 72 h
Experimental: (§1) The compounds were screened in a growth inhibition assay at 20 μM over a 72 h period in a panel of cancer cell lines (lung-A549; pancreatic-Aspc1; colon-HT29; breast-MDAMB231; prostate-PC3; ovarian-SKOV3 and bone-U2OS) and the results are summarized in Table 2. […] This size effect was also observed with the urea compounds from the secondary amine (6j vs. 6l and 6k vs. 6m).
(§2) Cell Growth Inhibition Assay. Human lung A549, human pancreatic AsPC1, human colorectal HT-29, human breast MDA-MB-231, human prostate PC3, human ovarian SKOV3, and human osteosarcoma U2OS tumor cell lines were cultured in basal media containing 10% FBS and maintained in a 37° C. incubator with 5% CO2. All compounds were screened in 96 well microtiter plate format. In general, each cell line was plated at optimal assay density in 95 μl of propagation media in 96 well plates and incubated overnight. The next day, a standard alamar blue assay was performed (see below) on representative wells of each cell line for a Tz calculation. Subsequently, cells were treated in duplicate with a 5 μl volume of either vehicle only, positive controls etoposide and taxol, or test compounds at 20 μM (highest soluble compound concentration). The treated cells were incubated for 72 h and then assayed for growth by alamar blue assay. Briefly, 10 μl of reagent was added to each well and the plates returned to 37° C. After 3 h, fluorescence at 544ex/590em was measured using a SpectraMax M5 (Molecular Devices) plate reader. Growth is represented as a percentage of the control cells that were treated with vehicle only and % growth inhibition was determined using the NCI algorithm: Tz=number of untreated cells at zero time, C=Number of control cells at 72 h time, and T=number of compound treated cells at 72 h time; 100*([T−Tz]/[C−Tz]).

[2] = test system: human colorectal HT-29 tumor cell line; assay: Cell growth inhibition assay (alamar blue); assay type: cell-based; conditions: HT29, 20 μM, 72 h
Experimental: as §1, §2

[3] = test system: human lung A549 tumor cell line; assay: Cell growth inhibition assay (alamar blue); assay type: cell-based; conditions: A549, 20 μM, 72 h
Experimental: as §1, §2

[4] = test system: human osteosarcoma U2OS tumor cell line; assay: Cell growth inhibition assay (alamar blue); assay type: cell-based; conditions: 72 h
Experimental: as §1, §2

[5] = test system: human ovarian SKOV3 tumor cell line; assay: Cell growth inhibition assay (alamar blue); assay type: cell-based; conditions: SKOV3, 20 μM, 72 h
Experimental: as §1, §2

[6] = test system: human pancreatic AsPC1 tumor cell line; assay: Cell growth inhibition assay (alamar blue); assay type: cell-based; conditions: AsPC1, 20 μM, 72 h
Experimental: as §1, §2

[7] = test system: human prostate PC3 tumor cell line; assay: Cell growth inhibition assay (alamar blue); assay type: cell-based; conditions: PC3, 20 μM, 72 h
Experimental: as §1, §2

[8] = test system: panel of cancer cell lines; assay: Growth inhibition assay, whole panel; assay type: cell-based, human; conditions: 20 μM, 72 h
Experimental: as §1, §2

SMILES | % Growth inhibition at 20 μM [1] | % Growth inhibition at 20 μM [2] | % Growth inhibition at 20 μM [3] | % Growth inhibition at 20 μM [4] | % Growth inhibition at 20 μM [5] | % Growth inhibition at 20 μM [6] | % Growth inhibition at 20 μM [7] | growth inhibition of the various cancer cell lines (in words) [8]
O=C(Nc1ccc2nc(-c3ccco3)c(-c3ccco3)nc2c1)N1CCOCC1 [6m] | 10.9 ± 5.0% | 19.4 ± 3.6% | 39.7 ± 12.8% | Inactive | Inactive | Inactive | 48.9 ± 7.5% | active
CC(=O)Nc1ccc2nc(-c3ccco3)c(-c3ccco3)nc2c1 [5b] | 20.3 ± 5.9% | 7.6 ± 5.1% | 57.8 ± 7.0% | Inactive | 9.0 ± 3.4% | Inactive | 57.7 ± 9.4% | inhibited growth
O=C(Nc1ccccc1)Nc1ccc2nc(-c3ccco3)c(-c3ccco3)nc2c1 [5f] | 31.3 ± 10.7% | 52.1 ± 11.6% | 54.6 ± 2.6% | 59.6 ± 1.6% | 24.7 ± 1.1% | 9.6 ± 6.6% | 70.6 ± 1.3% | inhibited growth
O=C(Nc1ccc2nc(-c3ccco3)c(-c3ccco3)nc2c1)N1CCC(Cc2ccccc2)CC1 [6k] | 90.8 ± 4.5% | 55.2 ± 4.1% | 93.1 ± 7.8% | 80.3 ± 2.4% | 47.6 ± 2.5% | >100% | >100% | active
CC(=O)Nc1ccc2nc(C)c(C)nc2c1 [5a] | 25.7 ± 5.1% | 31.7 ± 2.8% | 23.4 ± 3.3% | 31.4 ± 3.6% | 4.0 ± 3.6% | 26.2 ± 2.8% | 21.8 ± 15.1% | inhibited growth
S=C(Nc1ccccc1)Nc1ccc2nc(-c3ccco3)c(-c3ccco3)nc2c1 [6a] | 19.1 ± 12.5% | 26.1 ± 15.0% | 18.0 ± 0.1% | 21.4 ± 8.4% | Inactive | Inactive | 56.8 ± 1.4% | active
